Data set [1] in a line: Retinol stability in the presence of boosters (OD 360 nm). The class given is physicochemical. As to conditions: booster approximately 0.1%, 60 hours at room temperature in the dark, approx. 50% aqueous ethanol. How it is done: Retinol (50% in tween 80) was dissolved in approximately 50% aqueous ethanol to provide a solution giving an OD at 360 nm of approximately 0.6 when measured in a 200 μl volume in a 96 well plate using a standard 96 well spectrophotometer.
Booster molecules were added at approximately 0.1% concentration and the OD 360 measured as above immediately and after 60 hours at room temperature in the dark. A correction was applied to the OD after 60 hours (divide by 0.85) to account for increased concentration of the retinol due to evaporation of solvent from the plate.

In a further data set the target is TGase I. Put plainly: Transglutaminase (TGase I ELISA) assay in cultured keratinocytes. The settings on record: for IC50: booster in combination with a constant retinol concentration of 10^−7M, read-out: Overall TG (IC 50); for % Inhibition Overall TG (−ROH/RE): added effect of booster+retinol induced TGase inhibition over retinol alone. The format is cell-based.

The next data set has as its system Retinal Reductase. Put plainly: Assay for Retinal Reductase Activity, liver microsomes. The settings on record: test compound final 100 μM (method). The format is biochemical, rat.
A further data set deals with ARAT. The experiment in a line: Assay for ARAT activity, RPE microsomes. The class given is biochemical, bovine. The settings on record: for % Inhibition ARAT (100 μm): 100 μm compound.
The nature of data set [2]: Retinol stability in the presence of phytoestrogenic flavonoids (OD 360 nm). The class given is physicochemical. How it is done:
Retinol was dissolved as a 10% solution in aqueous ethanol (1:1 water:ethanol). This solution was diluted to 0.001% approximately 30 μM). This solution gave an OD of about 0.35 absorption unit at 360 nm in a 96 well plate spectrophotometer.
Aqueous ethanolic stock solutions of the genistein, daidzein were prepared as 0.1%, 0.01% or 0.001%. To 200 μl of 0.001% retinol solution in a 96 well plate was added 20 μl of the flavonoid (i.e. 1-10 dilution) giving a final flavonoid concentration of 0.01, 0.001 and 0.0001%. The plates were mixed and an initial OD reading was taken at 360 nm. The plates were incubated at room temperature in the dark for up to 2 days and subsequent readings were taken at 8, 24 and 48 hours. The OD readings at these time points were normalized to the 0 time point reading. The retinol stability was expressed as % of retinol (OD reading) at 0 time. The data is shown in example 5.
Example 5: The following tables show the effect of genistein and daidzein on destabilizing retinol. The experiment was done as described in methods section. The OD readings from duplicate measurements were averaged and given here.

In the next data set the test system is CRABP-II. The experiment in a line: CRABP-II expression in adult fibroblasts (dot blot). The settings on record: for CRABP-II production / % as Control: 1 μM phytoestrogen alone; for % as Control: control as 100%. The class given is cell-based, human.
In another data set the target is T1, LRAT (Bos taurus, UniProt Q9BGL2).
T1 construct: followed by approximately 15 μg of RPE microsomal protein; tissue W. L. Lawson Co., Lincoln, Nebr; host or cells: bovine retinal pigment epithelium microsomes
T1 sequence (Q9BGL2 1-230): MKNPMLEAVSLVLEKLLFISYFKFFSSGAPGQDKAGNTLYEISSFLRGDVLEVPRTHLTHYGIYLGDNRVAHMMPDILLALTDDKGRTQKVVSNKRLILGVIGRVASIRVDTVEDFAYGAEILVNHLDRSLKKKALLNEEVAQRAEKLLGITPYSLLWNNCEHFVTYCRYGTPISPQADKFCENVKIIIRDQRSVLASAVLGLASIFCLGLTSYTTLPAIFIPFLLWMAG
The experiment in a line: Assay for LRAT activity, RPE microsomes. The class given is biochemical, bovine.

In the next data set the test system is Retinol Dehydrogenase. The experiment in a line: Assay for Retinol Dehydrogenase Activity, liver microsomes. The settings on record: test compound final 100 μM (method). The format is biochemical, rat. How it is done:
2.2 Isolation of rat liver microsomes (modified from R. Martini & M. Murray, “Participation of P450 3A Enzymes in Rat Hepatic Microsomal Renitoic Acid 4-Hydroxylation”, Archives Biochem. Biophys. 303, 57-66 (1993)).
The resulting homogenate was successively centrifuged for 30 min. at 10,000 g, 30 min. at 20,000 g, and 15 min. at 30,000 g, and the resulting supernatant was ultracentrifuged for 80 min. at 105,000 g. […] Protein concentrations were determined as described above.
2.4 Assay for Retinol Dehydrogenase Activity (To identify B2)
The following stock solutions were prepared:
50 mM KH2PO4, pH 7.4 buffer, sterile filtered.
10 mM all trans Retinol (Sigma R7632) in DMSO.
200 mM Nicotinamide adenine dinucleotide phosphate, sodium salt (NADP) (Sigma N0505) in sterile water.
40 mM test compound in appropriate solvent (water, buffer, ethanol, chloroform or DMSO).
1:10 dilution of rat liver Microsomes in 50 mM KH2PO4, pH 7.4 buffer (4 ug/ul).
In a two-dram glass vial with screw cap, add the following in order:
Buffer to give a final volume of 400 μl […]
Aliquots of 60 μL were injected immediately and analyzed for retinoid content.
The chromatography instrumentation consisted of a Waters 600 gradient controller/pump, a Waters 996 Photodiode Array detector and a Waters 474 Scanning Fluorescence detector. […] The eluate was monitored for absorbance at 325 nm and fluorescence at 325 ex/480 em. […]

Read-outs that look alike come from different tables or passages of the source.

Procedure for ARAT: 50 frozen hemisected bovine eyecups, with the retina and aqueous humor removed were obtained from W. L. Lawson Co., Lincoln, Nebr., USA. The eyes were thawed overnight and the colored iridescent membrane was removed by peeling with forceps. […] The cell suspension was added to the iridescent membranes and the suspension was stirred for several minutes in a beaker with a Teflon stir bar. […] The cell homogenate was centrifuged for 30 min. at 20,000 g (Sorvaal model RC-5B centrifuge with an SS34 rotor in 2.5×10 cm tubes at 14,000 RPM). The resulting supernatant was subjected to further centrifugation for 60 min. at 150,000 g (Beckman model L80 Ultracentrifuge with an SW50.1 rotor in 13×51 mm tubes at 40,000 RPM). The resulting pellets were dispersed into ˜5 mL 0.1M PO4/5 mM DTT, pH 7 buffer using a Heat Systems Ultrasonics, Inc. model W185D Sonifier Cell Disruptor, and the resulting microsomal dispersion was aliquoted into small tubes and stored at −70° C. The protein concentrations of the microsomes were determined using the BioRad Dye binding assay, using BSA as a standard.
2.3 Assay for ARAT and LRAT activity (To identify B1)
The following buffer was prepared and stored at 4° C.: 0.1M PO4/5 mM dithiothreitol, pH 7.0 (PO4/DTT). On the day of the assay, add 2 mg BSA per mL of buffer to give a PO4/DTT/BSA working buffer. 1 mM retinol substrate was prepared in acetonitrile and stored in amber bottles under nitrogen gas at −20° C. Solutions of 4 mM Palmitoyl-CoA in working buffer (stored in aliquots) and 4 mM dilauroyl phosphatidyl choline in ethanol were prepared and stored at −20° C. Inhibitors were prepared as 10 mM stock solutions in H2O, ethanol, acetonitrile or DMSO. The quench solution was prepared using pure ethanol containing 50 μg/mL butylated hydroxytoluene (BHT), and a hexane solution containing 50 μg/mL BHT was used for the extractions.
Incubate for 5 min. at 37° C. to equilibrate the reaction temperature and then add 5 μL 1 mM retinol. Cap the vials, vortex for 5 seconds and incubate for 30-90 minutes at 37° C. Quench the reaction by adding 0.5 mL ethanol/BHT. Extract the retinoids by adding 3 mL hexane/BHT, vortex the tubes for several seconds several times and centrifuge the tubes at low speed for 5 min. to quickly separate the layers. […] Quantitate the amount of retinyl palmitate and retinyl laurate for ARAT and LRAT activity, respectively, by integration of the HPLC signal as described below. […]
(§1) Samples for retinoid quantitation by HPLC were prepared by dissolving the residue in each vial with 100 μL of methanol. […] Aliquots of 60 μL were injected immediately and analyzed for retinoid content.
(§2) Two HPLC protocols were used for retinoid analysis. […] The column eluate was monitored from 300 nm to 400 nm. […]
Procedure for CRABP-II: Cells were grown in 1:1 DMEM/Hams F12 media containing 10% FBS, maintained at 37° C. in a 5% CO2 atmosphere under normal atmosphere oxygen tension. Third passage adult fibroblasts were grown in DMEM media with 10% FBS in 12-well plates at a seeding density of 2500 cells/ml/well. The cells at 80% confluence were rinsed in serum free and phenol red free (PRF) DMEM media twice. Pre-treatment with phyto-compounds for 4 hours was conducted and then dosed with retinoids and was incubated for 48 hours. After the incubation, the wells were washed twice with 1×PBS and the cell monolayer was harvested in 100 μl cell lysis buffer (contains 1×PBS, 1% Triton X, 0.5% sodium deoxycholate, 0.1% SDS containing protease inhibitor (10 mg/ml PMSF in isopropanol, 10 μl/ml). The suspension was spun at 14000 rpm for 10 minutes, the supernatant collected and an aliquot of this supernatant was used for protein quantification. Protein concentration was determined using Pierce protein kit. The remainder of 100 μl supernatant (cell lysate) was denatured in a mixture of 40 μl sample buffer (NOVEX) and 0.5% Beta mercaptoethanol (BME) and by boiling the sample for 5 minutes.
To measure the levels of CRABP-II in the fibroblasts, the equal amount of protein of cell supernatant were loaded onto to nitrocellulose blots in a dot blot apparatus as instructed by the manufactorer, and immunostaining was carried out using monoclonal antibodies to CRABP-II according to standard procedures. The CRABP-II protein band was visualized in the Dot Blots using the chemiluminescence system obtained from Santa Cruz Biotechnology (SantaCruz, Calif.). The bands in the film were quantitated by dens tometric scanning, the data from the triplicate samples were calculated as % of control and expressed in the following tables as % increase over control (with control as 100%) +/−SD triplicates.
Procedure for LRAT: 50 frozen hemisected bovine eyecups, with the retina and aqueous humor removed were obtained from W. L. Lawson Co., Lincoln, Nebr., USA. The eyes were thawed overnight and the colored iridescent membrane was removed by peeling with forceps. […] The cell suspension was added to the iridescent membranes and the suspension was stirred for several minutes in a beaker with a Teflon stir bar. […] The cell homogenate was centrifuged for 30 min. at 20,000 g (Sorvaal model RC-5B centrifuge with an SS34 rotor in 2.5×10 cm tubes at 14,000 RPM). The resulting supernatant was subjected to further centrifugation for 60 min. at 150,000 g (Beckman model L80 Ultracentrifuge with an SW50.1 rotor in 13×51 mm tubes at 40,000 RPM). […] The protein concentrations of the microsomes were determined using the BioRad Dye binding assay, using BSA as a standard. […]
Incubate for 5 min. at 37° C. to equilibrate the reaction temperature and then add 5 μL 1 mM retinol. […] Quantitate the amount of retinyl palmitate and retinyl laurate for ARAT and LRAT activity, respectively, by integration of the HPLC signal as described below. […]
as §1, §2
Procedure for Retinal Reductase: 2.5 Assay for Retinal Reductase Activity (To identify B3)
All stock solution were prepared as above with the following substitutions:
10 mM all trans Retinaldehyde (Sigma R2500) in DMSO—instead of retinol.
200 mM, Nicotinamide adenine dinucleotide phosphate, reduced form, tetrasodium salt (NADPH) (Sigma N7505) in sterile water—instead of NADP.
25 μl diluted Microsomes (final=100 μg)—use boiled Microsomes for controls and regular Microsomes for test samples.
4 μl of 200 mM NADPH (final=2 mM)
1 μl of 40 mM test compound (final=100 μM)
Follow the same incubation and extraction procedure as detailed above.
as §1
Two HPLC protocols were used for retinoid analysis. […] This system consisted of a 20 min. linear gradient from 68:32 (v/v) methanol/ water containing 10 mM ammonium acetate to 4:1 (v/v) methanol:dichloromethane followed by a 5 min. hold at a flow rate of 1 mL/min. The column eluate was monitored from 300 nm to 400 nm.
Procedure for TGase I: Transglutaminase Assay and Keratinocyte Differentiation
An ELISA based TGase I assay, using a TGase I antibody, was used to assess the state of differentiation of the cultured keratinocytes in the examples that follow.
Keratinocytes (cultured as described above) were plated in 96 well plates at a density of 4,000-5,000 cells per well in 200 μl media. After incubation for two to three days, or until cells are ˜50% confluent, the media was changed to media containing test compounds (five replicates per test). The cells were cultured for a further 96 hours after which time the media was aspirated and the plates stored at −70° C. Plates were removed from the freezer, and the cells were washed twice with 200 μl of 1×PBS. The cells were incubated for one hour at room temperature (R/T) with TBS/5% BSA (wash buffer, bovine serum albumin). Next the TGase primary antibody was added: 50 μl of monoclonal anti-Tgase I Ab B.C. diluted 1:2000 in wash buffer. The primary antibody was incubated for 2 hours at 37° C. and then rinsed 6× with wash buffer. Cells were then incubated with 50 μl of secondary antibody (Fab fragment, peroxidase conjugated anti-mouse IgG obtaining from Amersham) diluted 1:4,000 in wash buffer for two hours at 37° C., then rinsed three times with wash buffer. Following the rinse with washing buffer, the cells were rinsed 3× with PBS. For colourimetric development, the cells were incubated with 100 μl substrate solution (4 mg o-phenylenediamine and 3.3 μl 30% H2O2 in 10 ml 0.1M citrate buffer pH 5.0) for exactly five minutes, R/T, in darkness (under aluminum foil). The reaction was stopped by the addition of 50 μl 4N H2SO4. […] Out of the five replicates, four were treated with both antibodies, the fifth one was use as a Tgase background control. TGase levels were determined and expressed as percentage control.
(i) % (booster+retinol inhibition/control inhibition)−% (ROH inhibition/control inhibition), which measures the added effect of booster+retinol induced TGase inhibition over retinol alone, or

With `Oc1cccc2cccnc12` [8 OH QUINOLINE], the “FOLD INCREASE IN RATE OF RETINOL LOSS” value in data set [1] is recorded as 1.5 fold.

On to `CC(=O)/C=C/C1C(C)=CCCC1(C)C` (stereo not drawn) [Alpha=Ionone], for which the “FOLD INCREASE IN RATE OF RETINOL LOSS” value in data set [1] was determined as 1.3 fold. Moreover, the IC50 at TGase I is 927 µM.

With `O=c1ccc2ccccc2o1` [COUMARIN], in data set [1], the “FOLD INCREASE IN RATE OF RETINOL LOSS” value amounted to 1.4 fold.

Regarding `CC1(C)[C@@H](OC(=O)CCC(=O)O)CC[C@]2(C)[C@H]3C(=O)C=C4[C@@H]5C[C@@](C)(C(=O)O)CC[C@]5(C)CC[C@@]4(C)[C@]3(C)CC[C@@H]12` [Carbenoxolone, reference compound], the “% Inhibition Retinal Reductase” value in the data set on Retinal Reductase was 26% +/− 2.

With `CC(C)=CCCC(C)=CC=O` [Citral], the “% Inhibition ARAT (100 μm)” value in the data set on ARAT came out at 20%. Further, the “FOLD INCREASE IN RATE OF RETINOL LOSS” value in data set [1] was 3.1 fold.

On to `O=c1c(-c2ccc(O)cc2)coc2cc(O)ccc12` [Daidzein], for which the “Retinol stability, % of retinol (OD reading) at 0 time” value in data set [2] (8 h, 0.0001 %) was 82%; in data set [2] (24 h, 0.0001 %) it was 78%; in data set [2] (48 h, 0.0001 %) it was 76%. Also, in the data set with CRABP-II, the CRABP-II production is on record as 1.49+/−0.66. Moreover, the “% as Control” value in the data set on CRABP-II was 513+/−227%.

`CN1CCN(C)C1=O` [Dimethyl Imidazolidinone]: the “FOLD INCREASE IN RATE OF RETINOL LOSS” value in data set [1] was 1.4 fold. Also, the “% Inhibition Overall TG (−ROH/RE)” value with TGase I worked out at 22%.

With `O=c1c(-c2ccc(O)cc2)coc2cc(O)cc(O)c12` [Genistein], in data set [2] (up to 48 hours), the “effect of flavonoid on instability of retinol” value is on record as “marked increases in the instability of retinol”. The “stimulation of CRABP-II” value with CRABP-II (1 μM alone) is given as “stimulated CRABP-II significantly”. In addition, in the data set with CRABP-II, the CRABP-II production is recorded as 1.9+/−0.71 and the “% as Control” value is 655+/−247%.

With `CC(C)=CCC/C(C)=C/CO` [Geraniol], the “% Inhibition ARAT (10 μm)” value in the data set with ARAT (10 μm compound) came out at 13%. In the data set with ARAT, the “% Inhibition ARAT (100 μm)” value is given as 32%. In data set [1], the “FOLD INCREASE IN RATE OF RETINOL LOSS” value is given as 1.3 fold.

For `CC1(C)[C@@H](O)CC[C@]2(C)[C@H]3C(=O)C=C4[C@@H]5C[C@@](C)(C(=O)O)CC[C@]5(C)CC[C@@]4(C)[C@]3(C)CC[C@@H]12` [Glycyrretinic Acid], the “FOLD INCREASE IN RATE OF RETINOL LOSS” value in data set [1] came to 1.6 fold. For the same molecule, the IC50 in the data set with TGase I (Keratinocyte) turned out to be 8.64 µM.

As to `CCCCCCCCCCCC(=O)N(C)CC(=O)O` [Lauroyl Sarcosine], the “% Inhibition ARAT (100 μm)” value in the data set on ARAT is recorded as 20%. In data set [1], the “FOLD INCREASE IN RATE OF RETINOL LOSS” value is listed as 2.6 fold.

For `CCCCC/C=C\C/C=C\CCCCCCCC(=O)O` [Linoleic Acid], in data set [1], the “FOLD INCREASE IN RATE OF RETINOL LOSS” value was determined as 3.4 fold. The “% Inhibition Retinal Reductase” value in the data set with Retinal Reductase stood at 62% +/− 2.

Consider `CCCCC/C=C\C/C=C\CCCCCCCC(=O)N(CCO)CCO` [Linoleoyl Diethanolamide], for which the “FOLD INCREASE IN RATE OF RETINOL LOSS” value in data set [1] is on record as 3.0 fold. For the same molecule, the “% Inhibition LRAT (10 μm)” value at LRAT (10 μm compound) came to 11% +/− 9. In addition, the “% Inhibition LRAT (100 μm)” value on LRAT (100 μm compound) was 51% +/− 15. In addition, in the data set with TGase I, the “% Inhibition Overall TG (−ROH/RE)” value is 59%.

`CCCCCCCCCCCCCC(=O)O` [Myristic Acid]: the “% Inhibition Retinal Reductase” value with Retinal Reductase is recorded as 26%.

In the case of `CC1=C(/C=C/C(C)=C/C=C/C(C)=C/CO)C(C)(C)CCC1` [Retinol], the retinol degraded turned out to be 8% in data set [2] (8 h, 0.001 %); 14% in data set [2] (24 h, 0.001 %); 19% in data set [2] (48 h, 0.001 %). The “Retinol stability, % of retinol (OD reading) at 0 time” value stood at 86% in data set [2] (24 h, 0.001 %) and 81% in data set [2] (48 h, 0.001 %).

For the molecule `COc1cc(C=O)ccc1O` [Vanillin], the “% Inhibition Retinal Reductase” value with Retinal Reductase came to 6%.

Regarding COCAMIDE DEA, the “FOLD INCREASE IN RATE OF RETINOL LOSS” value in data set [1] came to 1.9 fold.

On to DAMASCONE, for which the “FOLD INCREASE IN RATE OF RETINOL LOSS” value in data set [1] was 3.7 fold.

Take Phosphatidyl Choline: in the data set on Retinol Dehydrogenase, the “% Increase Retinol Dehydrogenase” value came to 21% increase.

On to Sphingomyelin, for which, in the data set with Retinol Dehydrogenase, the “% Increase Retinol Dehydrogenase” value is reported as 26% increase.

These data come from US20020143059A1, “Skin care product containing retinoids, retinoid booster and phytoestrogens in a dual compartment package” (priority 2000, published 2002).
